Results on 16 molecules are retold here after ChEMBL document CHEMBL1133287, “Preparation and evaluation of 1,3-diaminocyclopentane-linked dihydropyrimidinone derivatives as selective alpha1a-receptor antagonists” (Bioorg Med Chem Lett, 2000).

What all share (format): cell-based
The target in assay [1] is T1, Alpha-1A adrenergic receptor (Homo sapiens, UniProt P35348).
T1 sequence (P35348 whole entry): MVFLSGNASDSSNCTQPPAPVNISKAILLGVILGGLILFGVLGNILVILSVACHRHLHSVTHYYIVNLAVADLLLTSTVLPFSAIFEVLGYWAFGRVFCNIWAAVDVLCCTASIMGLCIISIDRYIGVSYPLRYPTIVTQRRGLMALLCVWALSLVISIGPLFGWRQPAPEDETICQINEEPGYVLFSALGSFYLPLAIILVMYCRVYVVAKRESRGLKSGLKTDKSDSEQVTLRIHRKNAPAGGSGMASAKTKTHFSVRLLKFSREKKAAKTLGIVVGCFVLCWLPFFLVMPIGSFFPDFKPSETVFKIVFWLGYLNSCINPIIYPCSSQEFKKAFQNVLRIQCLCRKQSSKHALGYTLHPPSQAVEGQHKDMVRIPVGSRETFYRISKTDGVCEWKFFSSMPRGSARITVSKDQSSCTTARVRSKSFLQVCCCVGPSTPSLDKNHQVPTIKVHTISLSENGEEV
Kind of assay: Displacement of [125I]HEAT from human Alpha-1A adrenergic receptor stably expressed in CHO cells.

In assay [2] the target is T2, Alpha-1B adrenergic receptor (Homo sapiens, UniProt P35368).
T2 sequence (P35368 whole entry): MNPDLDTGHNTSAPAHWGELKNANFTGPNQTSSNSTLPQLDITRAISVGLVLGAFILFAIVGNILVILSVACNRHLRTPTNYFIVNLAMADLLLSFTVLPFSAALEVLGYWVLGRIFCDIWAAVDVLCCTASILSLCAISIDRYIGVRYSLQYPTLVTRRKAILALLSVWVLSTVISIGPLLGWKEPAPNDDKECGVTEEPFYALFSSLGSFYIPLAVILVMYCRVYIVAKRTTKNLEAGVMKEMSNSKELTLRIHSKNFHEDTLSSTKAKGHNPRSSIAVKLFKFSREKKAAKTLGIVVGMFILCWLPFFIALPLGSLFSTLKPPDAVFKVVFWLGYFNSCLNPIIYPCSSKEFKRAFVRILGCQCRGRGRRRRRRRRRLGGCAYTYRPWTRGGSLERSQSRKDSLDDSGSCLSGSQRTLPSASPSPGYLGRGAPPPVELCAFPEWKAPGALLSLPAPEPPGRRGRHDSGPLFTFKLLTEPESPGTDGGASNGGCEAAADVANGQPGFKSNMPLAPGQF
Kind of assay: Displacement of [125I]HEAT from human Alpha-1B adrenergic receptor stably expressed in LM cells.

Assay [3] concerns the target T3, Alpha-1D adrenergic receptor (Homo sapiens, UniProt P25100).
T3 sequence (P25100 whole entry): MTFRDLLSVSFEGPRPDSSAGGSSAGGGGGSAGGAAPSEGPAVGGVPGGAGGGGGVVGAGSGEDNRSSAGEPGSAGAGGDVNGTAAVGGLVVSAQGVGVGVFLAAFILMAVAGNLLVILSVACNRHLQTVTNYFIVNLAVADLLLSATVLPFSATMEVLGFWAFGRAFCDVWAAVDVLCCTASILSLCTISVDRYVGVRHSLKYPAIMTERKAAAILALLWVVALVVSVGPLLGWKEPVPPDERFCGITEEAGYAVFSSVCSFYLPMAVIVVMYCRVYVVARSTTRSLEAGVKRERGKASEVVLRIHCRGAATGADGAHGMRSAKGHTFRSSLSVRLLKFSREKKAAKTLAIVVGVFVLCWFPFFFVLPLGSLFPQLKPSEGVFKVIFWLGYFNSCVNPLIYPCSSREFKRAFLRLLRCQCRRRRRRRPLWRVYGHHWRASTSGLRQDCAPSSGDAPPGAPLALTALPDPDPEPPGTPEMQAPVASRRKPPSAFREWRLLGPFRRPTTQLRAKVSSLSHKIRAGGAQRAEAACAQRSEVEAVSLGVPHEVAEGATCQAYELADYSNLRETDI
The experiment in a line: Displacement of [125I]HEAT from human Alpha-1D adrenergic receptor stably expressed in HL cells.

Take `COCC1=C(C(=O)OC)[C@H](c2ccc(F)c(F)c2)N(C(=O)N[C@@H]2CC[C@H](N3CCC(C#N)(c4ccccc4)CC3)C2)C(=O)N1`: the figures for the inhibition constant Ki in assay [1], in assay [2] and in assay [3] were 1 nM, 1900 nM and 620 nM, respectively.

For `COCC1=C(C(=O)OC)[C@H](c2ccc(F)c(F)c2)N(C(=O)N[C@@H]2CC[C@@H](N3CCC(c4ccccc4C#N)CC3)C2)C(=O)N1`, the inhibitory constant (Ki) worked out at 0.46 nM in assay [1], 91 nM in assay [2] and 31 nM in assay [3].

For the molecule `COCC1=C(C(=O)OC)[C@H](c2ccc(F)c(F)c2)N(C(=O)N[C@H]2CC[C@H](N3CCN(c4ccccc4C#N)CC3)C2)C(=O)N1`, the inhibition constant Ki is 4.8 nM in assay [1], 15 nM in assay [2] and 9 nM in assay [3].

Turning to `COCC1=C(C(=O)OC)[C@H](c2ccc(F)c(F)c2)N(C(=O)N[C@H]2CC[C@@H](N3CCC(c4ccccc4C#N)CC3)C2)C(=O)N1`, the inhibition constant (Ki) in assay [1] came out at 0.6 nM; in assay [2], 70 nM; in assay [3], 97 nM.

`COCC1=C(C(=O)OC)[C@H](c2ccc(F)c(F)c2)N(C(=O)N[C@@H]2CC[C@H](N3CCC(c4ccccn4)CC3)C2)C(=O)N1`: the inhibition constant Ki in assay [1] was 0.4 nM; in assay [2], 1300 nM; in assay [3] it was 320 nM.

Take `COCC1=C(C(=O)OC)[C@H](c2ccc(F)c(F)c2)N(C(=O)N[C@H]2CC[C@@H](N3CCC(C#N)(c4ccccc4)CC3)C2)C(=O)N1`: the Ki in assay [1] was 2.4 nM; in assay [2], 730 nM; in assay [3] it was 660 nM.

As to `COCC1=C(C(=O)OC)[C@H](c2ccc(F)c(F)c2)N(C(=O)N[C@@H]2CC[C@H](N3CCC(c4ccccc4C#N)CC3)C2)C(=O)N1`, the inhibition constant Ki stood at 0.24 nM in assay [1], 130 nM in assay [2] and 16 nM in assay [3].

Consider `COCC1=C(C(=O)OC)[C@H](c2ccc(F)c(F)c2)N(C(=O)N[C@@H]2CC[C@H](N3CCN(c4ccccc4C#N)CC3)C2)C(=O)N1`, for which the inhibition constant Ki in assay [1] amounted to 1.6 nM; in assay [2], 28 nM; in assay [3] it was 7.5 nM.

Regarding `COCC1=C(C(=O)OC)[C@H](c2ccc(F)c(F)c2)N(C(=O)N[C@H]2CC[C@@H](N3CCN(c4ccccc4C#N)CC3)C2)C(=O)N1`, the inhibitory constant (Ki) in assay [1] stood at 0.44 nM; in assay [2], 51 nM; in assay [3], 39 nM.

`COCC1=C(C(=O)OC)[C@H](c2ccc(F)c(F)c2)N(C(=O)N[C@H]2CC[C@H](N3CCC(C#N)(c4ccccc4)CC3)C2)C(=O)N1`: the Ki in assay [1] was 2.3 nM; in assay [2] it was 120 nM; in assay [3], 95 nM.

In the case of `COCC1=C(C(=O)OC)[C@H](c2ccc(F)c(F)c2)N(C(=O)N[C@@H]2CC[C@@H](N3CCC(c4ccccn4)CC3)C2)C(=O)N1`, the Ki was determined as 0.38 nM in assay [1], 350 nM in assay [2] and 500 nM in assay [3].

As for `COCC1=C(C(=O)OC)[C@H](c2ccc(F)c(F)c2)N(C(=O)N[C@@H]2CC[C@@H](N3CCC(C#N)(c4ccccc4)CC3)C2)C(=O)N1`, the Ki in assay [1] came out at 0.37 nM; in assay [2], 210 nM; in assay [3], 660 nM.

With `COCC1=C(C(=O)OC)[C@H](c2ccc(F)c(F)c2)N(C(=O)N[C@H]2CC[C@H](N3CCC(c4ccccc4C#N)CC3)C2)C(=O)N1`, the values for the inhibition constant Ki in assay [1], in assay [2] and in assay [3] were 2.4 nM, 36 nM and 11 nM, respectively.

As to `COCC1=C(C(=O)OC)[C@H](c2ccc(F)c(F)c2)N(C(=O)N[C@H]2CC[C@H](N3CCC(c4ccccn4)CC3)C2)C(=O)N1`, the results for the Ki in assay [1], in assay [2] and in assay [3] were 8.3 nM, 130 nM and 170 nM, respectively.

Take `COCC1=C(C(=O)OC)[C@H](c2ccc(F)c(F)c2)N(C(=O)N[C@@H]2CC[C@@H](N3CCN(c4ccccc4C#N)CC3)C2)C(=O)N1`: the values for the inhibition constant (Ki) in assay [1], in assay [2] and in assay [3] were 0.9 nM, 14 nM and 5.4 nM, respectively.

Regarding `COCC1=C(C(=O)OC)[C@H](c2ccc(F)c(F)c2)N(C(=O)N[C@H]2CC[C@@H](N3CCC(c4ccccn4)CC3)C2)C(=O)N1`, the results for the Ki in assay [1], in assay [2] and in assay [3] were 4.7 nM, 290 nM and 550 nM, respectively.
